The results in this text go back to patent publication US20060074073A1, “Therapeutic combinations comprising poly (ADP-ribose) polymerases inhibitor” (AGOURON PHARMACEUTICALS, INC., priority 2004, published 2006).

The test system of series [1] is SW620 human colon carcinoma xenograft. Nature of the series: In vivo antitumor efficacy with temozolomide, SW620 xenograft.
Another series deals with PARP. Nature of the series: Tumor PARP catalytic activity, 32P-NAD incorporation in SW620 tumor homogenates of treated animals. Type of series: in vivo, mice. The protocol: Tumours were excised and were snap frozen in liquid nitrogen and stored at −80° C. until homogenised for analysis. The specimen was defrosted on ice and the wet weight documented. The tissue was homogenised using a Pro 2000 instrument (Pro Scientific Inc, Monroe, Conn., USA) in 3 volumes (i.e. 1 mg plus 3 μl isotonic buffer −7 mM Hepes, 26 mM KCl, 0.1 mM dextran, 0.4 mM EGTA, 0.5 mM MgCl2, 45 mM sucrose, pH 7.8), giving a homogenate with an overall dilution of 1 in 4. The homogenate was kept on ice throughout the process, and homogenisation was performed in 10 second bursts to prevent undue warming of the sample. Prior to assay the samples were further diluted with isotonic buffer where necessary to give a final dilution of 1 in 40 for [^32P]NAD incorporation assay or 1 in 1000 for immunoblot aaasy.
Briefly, cells were suspended in hypotonic buffer (9 mM HEPES pH 7.8, 4.5% (v/v) dextran, 4.5 mM MgCl2 and 5 mM DTT) at 1.5×10^7/ml on ice for 30 minutes then 9 vol of isotonic buffer (40 mM HEPES pH 7.8, 130 mM KCl, 4% (v/v) dextran, 2 mM EGTA, 2.3 mM MgCl2, 225 mM sucrose and 2.5 mM DTT) was added. The reaction was started by adding 300 μl cells to 100 μl 300 μM NAD^+ containing [^32P]-NAD^+ (Amersham, UK), and terminated by the addition of 2 ml ice cold 10% (w/v) TCA+10% (w/v) sodium pyrophosphate. After 30 min on ice the precipitated ^32P—labelled ADP-ribose polymers were filtered on Whatman GC/C filters (Whatman Intemational Ltd, Kent, UK), washed 5 times with 1% (v/v) TCA/1% (v/v) sodium pyrophosphate, dried and counted. PARP inhibitory IC50 values were calculated from computer-fitted curves (GraphPad Software, Inc., San Diego, Calif.).
Tumour homogenates were assayed in a similar manner; however, the homogenisation process introduces sufficient DNA damage to maximally stimulate PARP activity and oligonucleotide was not therefore required. Results were expressed in terms of pmol PAR former per mg tumour.
Preparation of Tumour/Tissue Samples • 1. The frozen tumour samples are weighed. • 2. 3 volumes (i.e. 3 μl solution added for each 1 mg tissue) of isotonic buffer plus DTT is added to the tumour sample. This is stored on ice until and during homogenisation. • 3. The sample is homogenised on ice within a Class II cabinet for 10-second bursts until no detectable macroscopic pieces of tissue are visible. • 4. Sufficient volume of the homogenate is diluted 1 in 10 with isotonic buffer plus DTT to provide an overall dilution of 1 in 40 from the original sample. A final volume of 3 ml is sufficient for triplicate sampling and a subsequent protein assay. • 5. The diluted homogenate is stored on ice and assayed within one hour as below.
PARP Assay of Tumour/Tissue Samples • 1. ^32P 600 μM NAD solution is prepared fresh on the day of experiment as detailed above. Oligonucleotide stock is removed from storage and defrosted. • 2. Water bath is warmed to 26° C. and set to agitate at 70 oscillations per minute.
3. Reaction test tubes are set up as per table A for the QC samples and as per table B for the homogenate.
• 4. Each QC sample is assayed in triplicate, with T0, +oligo and −oligo samples ×3. (Total of 9 tubes per sample, if low cell counts −oligo samples are omitted.) Homogenates are also assayed in triplicate, with T0 and reaction samples ×3. (Total 6 tubes per sample). • 5. 2 ml ice cold 10% TCA+10% NaPPi is added to the T0 tubes prior to addition of homogenate or cells, to correct for non-specific binding of radio-label to the filter. • 6. Reaction test tubes homogenates and QC cells are warmed in the water bath to 26° C. for 7 minutes. • 7. Each preparation is vortexed briefly and the reaction is started by adding 300 μl of this to each reaction tube. • 8. The reaction is stopped exactly 6 minutes after addition of homogenate by adding 2 ml of ice cold 10% TCA+10% NaPPi and vortexing. • 9. The tube is then incubated on ice for at least one hour prior to filtration. • 10. […]

In another series the test system is LoVo xenografts. The experiment in a line: In vivo antitumor efficacy with irinotecan, LoVo xenograft. On the set-up: species or system mice. The conditions noted are these: once weekly × 3. An excerpt:
In no combination study was antagonism observed.

Series [2] can be described thus: Plasma and tumor levels by HPLC/MS in mice bearing SW620 xenograft. The class given is in vivo. Here is the method: In a parallel study plasma and tumor levels of the compound of formula 1 were measured by an HPLC/MS assay. In addition the degree of inhibition of tumor PARP catalytic activity was assessed using P^32-NAD incorporation into poly-ADP-ribose polymer in homogenates from SW620 tumors of treated animals. […] PARP catalytic activity was inhibited by 50% at 6 h and by 25% at 24 h.

Marks after values point to notes of the source that are not given here.

With `CNCc1ccc(-c2[nH]c3cc(F)cc4c3c2CCNC4=O)cc1.O=P(O)(O)O` [Compound I, phosphate salt of 8-fluoro-2-{4-[(methylamino)methyl]phenyl}-1,3,4,5-tetrahydro-6H-azepino[5,4,3-cd]indol-6-one], in series [1] (Compound I alone), the single-agent antitumor effects result is on record as “no single-agent antitumor effects”.
Regarding `CNCc1ccc(-c2[nH]c3cc(F)cc4c3c2CCNC4=O)cc1.O=C[C@H](O)[C@@H](O)[C@H](O)[C@H](O)C(=O)O` [compound of formula 1 glucuronate salt], the “PARP Activity (%)” value with PARP (0.1 mg/kg i.p. glucuronate salt + temozolomide 68 mg/kg, 0.5 h) was determined as 77.6 ± 13.3%; in the series on PARP (0.1 mg/kg i.p. glucuronate salt + temozolomide 68 mg/kg, 6 h), 90.2 ± 11.5%; with PARP (0.1 mg/kg i.p. glucuronate salt + temozolomide 68 mg/kg, 24 h) it was 100.4 ± 7.5%; in the series with PARP (1.0 mg/kg i.p. glucuronate salt + temozolomide 68 mg/kg, 0.5 h) it was 24.9 ± 16.2%; with PARP (1.0 mg/kg i.p. glucuronate salt + temozolomide 68 mg/kg, 6 h) it was 68.6 ± 36.2%; with PARP (1.0 mg/kg i.p. glucuronate salt + temozolomide 68 mg/kg, 24 h), 70.2 ± 19.0%. The “PARP Activity (%)” value with PARP (10 mg/kg i.p. glucuronate salt + temozolomide 68 mg/kg, 0.5 h) is recorded as 3.4 ± 1.4%; with PARP (10 mg/kg i.p. glucuronate salt + temozolomide 68 mg/kg, 6 h), 4.8 ± 0.87%; in the series with PARP (10 mg/kg i.p. glucuronate salt + temozolomide 68 mg/kg, 24 h) it was 18.3 ± 12.7%. Further, the “Enhancement (%)” value is on record as 0% in the series on LoVo xenografts (irinotecan 25 mg/kg i.p. + 0.0 mg/kg i.p. (glucuronate salt)); 71% in the series on LoVo xenografts (irinotecan 25 mg/kg i.p. + 0.15 mg/kg i.p. (glucuronate salt)); 86^f % in the series on LoVo xenografts (irinotecan 25 mg/kg i.p. + 0.5 mg/kg i.p. (glucuronate salt)); 28^g % in series [1] (SW620, 0.1 mg/kg i.p. glucuronate salt + temozolomide 68 mg/kg p.o., QD×5); “≧100^g %” in series [1] (SW620, 1.0 mg/kg i.p. glucuronate salt + temozolomide 68 mg/kg p.o., QD×5); 35% in series [1] (SW620, temozolomide 68 mg/kg oral + 0.05 mg/kg i.p. (glucuronate salt), once daily for 5 days). Moreover, the “Enhancement (%)” value in series [1] (SW620, temozolomide 68 mg/kg oral + 0.15 mg/kg i.p. (glucuronate salt), once daily for 5 days) is given as 270^f %; in series [1] (SW620, temozolomide 68 mg/kg oral + 0.5 mg/kg i.p. (glucuronate salt), once daily for 5 days), >60^f, g %. In addition, the “Plasma compound of formula 1” value turned out to be 12.7 ± 2.3 ng/mL in series [2] (0.1 mg/kg i.p. as glucuronate salt + temozolomide 68 mg/kg p.o., 0.5 h); 0.0 ± 0.0 ng/mL in series [2] (0.1 mg/kg i.p. as glucuronate salt + temozolomide 68 mg/kg p.o., 6 h); 0.0 ± 0.0 ng/mL in series [2] (0.1 mg/kg i.p. as glucuronate salt + temozolomide 68 mg/kg p.o., 24 h); 92.0 ± 28.0 ng/mL in series [2] (1.0 mg/kg i.p. as glucuronate salt + temozolomide 68 mg/kg p.o., 0.5 h); 4.7 ± 4.0 ng/mL in series [2] (1.0 mg/kg i.p. as glucuronate salt + temozolomide 68 mg/kg p.o., 6 h); 0.0 ± 0.0 ng/mL in series [2] (1.0 mg/kg i.p. as glucuronate salt + temozolomide 68 mg/kg p.o., 24 h). The “Plasma compound of formula 1” value in series [2] (10 mg/kg i.p. as glucuronate salt + temozolomide 68 mg/kg p.o., 0.5 h) is given as 1532 + 134 ng/mL; in series [2] (10 mg/kg i.p. as glucuronate salt + temozolomide 68 mg/kg p.o., 6 h), 98.0 ± 28.0 ng/mL; in series [2] (10 mg/kg i.p. as glucuronate salt + temozolomide 68 mg/kg p.o., 24 h) it was 17.8 ± 29.5 ng/mL. Moreover, the body weight loss entry in series [1] (SW620, temozolomide 68 mg/kg + 0.05 or 0.15 mg/kg glucuronate salt QD×5) is given as “No body weight loss”. Moreover, the complete remission rate in series [1] (SW620, temozolomide 68 mg/kg + 0.15 or 0.5 mg/kg glucuronate salt QD×5) amounted to 100%.
